For one assay, the system named is MOLM-13 cells. In words: Proliferation assay, MOLM-13 (CellTiter-Glo, 7 days). The assay is classed as cell-based, human. The procedure, abridged:
(§1)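 Cells were seeded at line-specific low densities for linear growth, exposed to 3.16-fold serial compound dilutions at 0.1% DMSO, and incubated 7 days at 37 °C, 5% CO2. Viability was read by CellTiter-Glo 2.0 luminescence; IC50 came from one-site fits of % inhibition, normalized between DMSO-treated cells (100%) and a day-0 plate (0%).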
For orientation: In ATP-based viability assays light output follows the ATP content of the culture.

Assay [1] deals with T1, muscarinic M2 receptor (Homo sapiens (Human), UniProt P08172). In words: Muscarinic M2 receptor binding assay (assay 1). The following applies: [3H]AF-DX 384 2 nM, Cheng Prusoff. Summed up:
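Membrane homogenates (60 μg protein) were incubated with 2 nM [3H]AF-DX 384 for 60 min at 22° C in Tris-HCl pH 7.4 with NaCl, KCl, MgCl2 and EDTA; 1 μM atropine defined nonspecific binding. Filtration and scintillation counting gave percent inhibition of specific binding, with Ki by Cheng-Prusoff.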

For assay [2], the target named is T1, muscarinic M2 receptor. In words: Muscarinic M2 receptor functional assay, antagonist effect (assay 2). Format: cell-based. Particulars: cAMP, 1 μM acetylcholine. The procedure: Thereafter, the reference agonist acetylcholine and the adenylyl cyclase activator NKH 477 were added at respective final concentrations of 1 μM and 5 μM. For basal control measurements, acetylcholine was omitted from the wells containing 10 μM methoctramine. Following 10 minutes incubation at 37° C., the cells were lysed, and the fluorescence acceptor (D2-labeled cAMP) and fluorescence donor (anti-cAMP antibody labelled with europium cryptate) were added. After 60 minutes at room temperature, the fluorescence transfer was measured at λex=337 nm and λem=620 and 665 nm using a microplate reader (Rubystar, BMG). The cAMP concentration was determined by dividing the signal measured at 665 nm by that measured at 620 nm (ratio). The results were expressed as a percent inhibition of the control response to 1 μM acetylcholine. For test compounds and for standard reference antagonist methoctramine, which is tested in each experiment, assays were run in eight-point concentration response mode and IC50 values determined following non-linear regression curve analysis. Curve analysis was completed using software developed at Cerep (Hill software) and validated by comparison with data generated by the commercial software SigmaPlot®4.0 for Windows® (© 1997 by SPSS Inc.).

A further assay concerns OCI-AML3 cells. In words: Proliferation assay, OCI-AML3 (CellTiter-Glo, 7 days). Format: cell-based, human. The following applies: Homo sapiens, OCI-AML-3, 168 h. The procedure, abridged: as §1
The subject of a further assay is MV4;11 cells. In words: Proliferation assay, MV4;11 (CellTiter-Glo, 7 days). The following applies: Homo sapiens, MV4-11, 168 h, read-out: MV-4-11 IC50. Format: cell-based, human. The procedure, abridged:
as §1

In a further assay the target is hERG (Homo sapiens (Human), UniProt Q12809). In words: hERG assay 2, QPatch II 48X, room temperature. Format: cell-based. Particulars: hERG DUO cell line, top 200 μM. The procedure:
Experiments were performed on the QPatch II 48X (Sophion Biosciences) high throughput patch clamp platform at room temperature and used single hole Qplates. hERG DUO cell line (BSys) was used. The internal patch clamp solution was KF 60 mM, KCl 70 mM, HEPES 10 mM, EGTA 10 mM, and 5 mM Mg ATP (pH7.2). After sealing and whole cell access was gained the external solution (NaCl 140 mM, KCl 4 mM, HEPES 10 mM, CaCl2 2 mM, MgCl2 1 mM, glucose 5 mM (pH 7.4) was applied twice to establish stable baseline currents. An industry standard +40/−40 mV voltage protocol was applied every 15 seconds. All compounds were tested in a 6-point cumulative assay (final DMSO concentration 0.4-2% depending on stock concentration of compounds). Compounds were dispensed from initial 10 mM or 50 mM DMSO stocks after which DMSO dilutions were undertaken with a top concentration of 200 μM tested. Solvent controls were run in all experiments in line with the DMSO % required. Only wells that passed acceptance criteria for this platform were used in this analysis (500 MegaOhm seal resistance and current size >0.2 nA). Analysis was completed in Prism Graphpad to complete a composite IC50, by plotting % inhibition versus log compound concentration and using a log(inhibitor) vs. response—Variable slope.
In general terms: Block of hERG is tested as a sign of cardiac risk.

For eight compounds, IC50 and Ki results are on record in US20240335431A1, “1-H-PYRROLO[2,3-c]PYRIDINE COMPOUNDS” (Acerta Pharma B.V., priority 2023, published 2024).

Where two headings read alike, the source gives them in different places. Some results are limits rather than exact numbers.

Chain of hERG (Q12809 whole entry): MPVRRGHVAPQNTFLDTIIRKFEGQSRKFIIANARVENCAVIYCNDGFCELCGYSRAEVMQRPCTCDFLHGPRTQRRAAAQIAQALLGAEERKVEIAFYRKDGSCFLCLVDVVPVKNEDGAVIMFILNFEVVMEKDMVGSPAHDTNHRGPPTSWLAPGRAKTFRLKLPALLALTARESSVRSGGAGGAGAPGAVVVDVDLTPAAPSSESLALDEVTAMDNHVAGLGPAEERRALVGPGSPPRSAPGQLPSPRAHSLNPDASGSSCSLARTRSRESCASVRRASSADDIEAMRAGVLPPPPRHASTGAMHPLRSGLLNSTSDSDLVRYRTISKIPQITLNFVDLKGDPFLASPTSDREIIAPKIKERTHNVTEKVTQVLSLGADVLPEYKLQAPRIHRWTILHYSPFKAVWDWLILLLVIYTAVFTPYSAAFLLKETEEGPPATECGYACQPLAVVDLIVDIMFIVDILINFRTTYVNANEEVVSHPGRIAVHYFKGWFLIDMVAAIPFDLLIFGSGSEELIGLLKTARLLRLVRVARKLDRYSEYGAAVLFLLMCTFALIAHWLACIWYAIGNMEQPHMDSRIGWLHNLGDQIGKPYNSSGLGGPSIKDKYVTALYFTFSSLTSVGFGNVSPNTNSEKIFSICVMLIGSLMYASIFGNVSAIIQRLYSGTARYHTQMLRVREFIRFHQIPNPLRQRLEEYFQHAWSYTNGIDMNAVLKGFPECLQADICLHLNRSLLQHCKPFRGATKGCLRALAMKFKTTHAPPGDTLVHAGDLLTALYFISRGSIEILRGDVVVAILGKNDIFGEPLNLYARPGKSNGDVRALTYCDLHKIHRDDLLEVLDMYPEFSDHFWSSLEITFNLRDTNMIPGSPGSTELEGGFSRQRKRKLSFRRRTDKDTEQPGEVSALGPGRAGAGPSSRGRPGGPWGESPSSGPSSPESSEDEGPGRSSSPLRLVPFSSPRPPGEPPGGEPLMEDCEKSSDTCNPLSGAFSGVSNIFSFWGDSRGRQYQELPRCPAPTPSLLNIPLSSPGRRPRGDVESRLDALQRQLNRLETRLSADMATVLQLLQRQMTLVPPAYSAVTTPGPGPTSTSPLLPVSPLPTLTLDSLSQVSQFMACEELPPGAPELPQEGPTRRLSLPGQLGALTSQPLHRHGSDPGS
T1 sequence (P08172 whole entry): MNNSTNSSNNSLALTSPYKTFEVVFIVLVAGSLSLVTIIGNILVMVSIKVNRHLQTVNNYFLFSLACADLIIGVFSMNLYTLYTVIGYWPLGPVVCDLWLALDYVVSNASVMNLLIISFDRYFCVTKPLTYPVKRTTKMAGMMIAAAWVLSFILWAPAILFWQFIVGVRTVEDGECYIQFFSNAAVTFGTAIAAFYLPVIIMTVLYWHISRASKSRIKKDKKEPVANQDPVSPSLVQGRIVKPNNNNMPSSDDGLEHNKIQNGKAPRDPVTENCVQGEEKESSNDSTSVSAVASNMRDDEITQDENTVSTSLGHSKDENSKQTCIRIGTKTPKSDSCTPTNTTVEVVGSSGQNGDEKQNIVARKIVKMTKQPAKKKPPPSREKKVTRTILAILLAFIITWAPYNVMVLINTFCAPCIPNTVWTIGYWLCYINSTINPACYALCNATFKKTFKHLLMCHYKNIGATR

Usually IC50 stands for the concentration that inhibits the measured activity by half. By Ki is commonly meant the dissociation constant of the complex between target and ligand, obtained from inhibition or displacement. High values mean lower affinity, low ones higher affinity. Take `Cc1c(C(=O)C2CCN(C(=O)[C@@H]3CCC4(CC4)N3)CC2)c2ccncc2n1-c1ccc(F)cc1C(=O)N1[C@H](C)COC[C@H]1C` (single isomer, unassigned) [Example 58-2]: the half-maximal inhibitory concentration (IC50) with MOLM-13 cells worked out at 37 nM; against muscarinic M2 receptor [2], 8600 nM; with OCI-AML3 cells, 35 nM; in the assay with MV4;11 cells, 35 nM. The compound further gave a Ki at muscarinic M2 receptor [1] of 4200 nM.

As to `CC(C)N(C(=O)c1cc(F)ccc1-n1cc(C(=O)[C@H]2CCN(C(=O)[C@H]3N[C@@H]4CC[C@H]3C4)C2)c2ccncc21)C(C)C` [Example 2, 2-(3-((S)-1-((1R,3S,4S)-2-Azabicyclo[2.2.1]heptane-3-carbonyl)pyrrolidine-3-carbonyl)-1H-pyrrolo[2,3-c]pyridin-1-yl)-5-fluoro-N,N-diisopropylbenzamide], the IC50 was more than 200000 nM at hERG; 105 nM with MOLM-13 cells (Homo sapiens, MOLM-13, 168 h); 5200 nM on muscarinic M2 receptor [2]; 126 nM in the assay with OCI-AML3 cells; 97 nM in the assay on MV4;11 cells. The Ki at muscarinic M2 receptor [1] was found to be 800 nM.

As for `CC(C)N(C(=O)c1cc(F)ccc1-n1cc(C(=O)C2CN(C(=O)[C@H]3N[C@@H]4CC[C@H]3C4)C2)c2ccncc21)C(C)C` [Example 5, 2-(3-(1-((1R,3S,4S)-2-Azabicyclo[2.2.1]heptane-3-carbonyl)azetidine-3-carbonyl)-1H-pyrrolo[2,3-c]pyridin-1-yl)-5-fluoro-N,N-diisopropylbenzamide], the IC50 against hERG is more than 200000 nM; in the assay on MOLM-13 cells (Homo sapiens, MOLM-13, 168 h), 74 nM; at muscarinic M2 receptor [2] it was more than 100000 nM; with OCI-AML3 cells, 125 nM; in the assay with MV4;11 cells, 85 nM. Moreover, affinity at muscarinic M2 receptor [1] was put at a Ki of 6600 nM.

As to `CC(C)c1ncccc1-c1cc(F)ccc1-n1cc(C(=O)C2CN(C(=O)[C@H]3N[C@@H]4CC[C@H]3C4)C2)c2ccncc21` [Example 10, (1-((1R,3S,4S)-2-Azabicyclo[2.2.1]heptane-3-carbonyl)azetidin-3-yl)(1-(4-fluoro-2-(2-isopropylpyridin-3-yl)phenyl)-1H-pyrrolo[2,3-c]pyridin-3-yl)methanone], the 50% inhibitory concentration (IC50) against hERG is 79100 nM; with MOLM-13 cells (Homo sapiens, MOLM-13, 168 h) it was 23 nM; in the assay with OCI-AML3 cells it was 24 nM; in the assay with MV4;11 cells it was 24 nM. Also, on muscarinic M2 receptor [1], the Ki is 10500 nM.

As to `CC(C)N(C(=O)c1cc(F)ccc1-n1cc(C(=O)C2CCN(C(=O)[C@H]3N[C@@H]4CC[C@H]3C4)CC2)c2ccncc21)C(C)C` [Example 16, 2-(3-(1-((1R,3S,4S)-2-Azabicyclo[2.2.1]heptane-3-carbonyl)piperidine-4-carbonyl)-1H-pyrrolo[2,3-c]pyridin-1-yl)-5-fluoro-N,N-diisopropylbenzamide], the half-maximal inhibitory concentration (IC50) amounted to 128000 nM against hERG; 35 nM with MOLM-13 cells (Homo sapiens, MOLM-13, 168 h); 1100 nM against muscarinic M2 receptor [2]; 51 nM with OCI-AML3 cells; 29 nM in the assay on MV4;11 cells. For the same compound, affinity on muscarinic M2 receptor [1] was put at a Ki of 200 nM.

Take `CC(C)N(C(=O)c1cc(F)ccc1-n1cc(C(=O)C2CCN(C(=O)[C@H]3NC[C@@H]4C[C@@H]43)CC2)c2ccncc21)C(C)C` [Example 19, 2-(3-(1-((1S,2S,5R)-3-Azabicyclo[3.1.0]hexane-2-carbonyl)piperidine-4-carbonyl)-1H-pyrrolo[2,3-c]pyridin-1-yl)-5-fluoro-N,N-diisopropylbenzamide]: the IC50 against hERG stood at 128000 nM; in the assay on MOLM-13 cells (Homo sapiens, MOLM-13, 168 h), 34 nM; on muscarinic M2 receptor [2], 21300 nM; in the assay with MV4;11 cells it was 25 nM. Also, the Ki at muscarinic M2 receptor [1] was determined as 1400 nM.

Take `CC(C)N(C(=O)c1cc(F)ccc1-n1cc(C(=O)C2CCN(C(=O)[C@H]3NC4CCC3CC4)CC2)c2ccncc21)C(C)C` [Example 20, (S)-2-(3-(1-(2-Azabicyclo[2.2.2]octane-3-carbonyl)piperidine-4-carbonyl)-1H-pyrrolo[2,3-c]pyridin-1-yl)-5-fluoro-N,N-diisopropylbenzamide]: the half-inhibitory concentration (IC50) is more than 200000 nM on hERG; 40 nM in the assay with MOLM-13 cells (Homo sapiens, MOLM-13, 168 h); 5200 nM on muscarinic M2 receptor [2]; 25 nM in the assay on MV4;11 cells. The compound also registered a Ki at muscarinic M2 receptor [1] of 800 nM.

With `CCN(C(=O)c1cc(F)ccc1-n1c(C)c(C(=O)C2CCN(C(=O)[C@H]3NC[C@@H]4C[C@@H]43)CC2)c2ccncc21)C(C)C` [Example 47, 2-(3-(1-((1S,2S,5R)-3-Azabicyclo[3.1.0]hexane-2-carbonyl)piperidine-4-carbonyl)-2-methyl-1H-pyrrolo[2,3-c]pyridin-1-yl)-N-ethyl-5-fluoro-N-isopropylbenzamide], the IC50 turned out to be 194000 nM on hERG; 42 nM with MOLM-13 cells; 62800 nM against muscarinic M2 receptor [2]; 26 nM in the assay on OCI-AML3 cells; 33 nM with MV4;11 cells. The compound further gave an inhibitory constant (Ki) on muscarinic M2 receptor [1] of 7300 nM.
